The values below come from EP0147851B1, “Water soluble forms of polyene antibiotics, and process for preparing them” (priority 1983, dated 1985).

Read-outs that look alike come from different tables or passages of the source.

In data set [1] the test system is aus menschlichem Blut hergestellten Suspensionen roter Blutkörperchen. The note with it: cited from earlier work.
Data set [2] in a line: Solubility of Amphotericin B in aqueous γ-CD solutions (spectrophotometric). The class given is physicochemical. The note with it: for Amphotericin B Konzentration: 37 °C, 2 Stunden geschüttelt. As for the experimental part:
Das ist ein weiterer Beweis dafür, daß das Amphotericin in den γ-CD-haltigen wäßrigen Lösungen in molekular disperser Form vorliegt.
Auch für Amphotericin B wurde die Löslichkeit als Funktion der γ-CD-Konzentration ermittelt. Zu wäßrigen γ-CD-Lösungen unterschiedlicher Konzentration (0, 2, 4, 5, 6, 8, 10 beziehungsweise 12 %) wurden 5 mg/ml Amphotericin B gegeben, und die bei 37 °C thermostatisierten Lösungen wurden 2 Stunden lang intensiv geschüttelt. Die Lösungen wurden klarfiltriert, und die Menge des in Lösung gegangenen Amphotericin B wurde spektrophotometrisch bestimmt. Die Ergebnisse sind in der Tabelle 3 zusammengestellt.

Data set [3] has as its system aus menschlichem Blut hergestellten Suspensionen roter Blutkörperchen. The note with it: human. The source says:
Dyn. 6, 408-414 [1983]) untersucht. Die Ergebnisse werden in Form der zu 50 %iger Hämolyse gehörenden Konzentrationen (EH₅₀) angegeben. […] Auch die hämolytische Wirkung einer der im Komplex gebundenen γ-CD-Menge entsprechenden Menge γ-Cyclodextrin wurde untersucht.

The next data set deals with Weibliche CFY-Ratten. The experiment in a line: Mortality after subcutaneous administration in rats. The class given is in vivo. The note with it: subcutan, 302 mg/kg, 10 Tiere, observation one week. The source says: • a) Die Resorption von Nystatin aus per os verabreichtem Nystatin-γ-CD-Komplex Die Resorption des Wirkstoffes wurde an Mäusen, an einem durch intravenöse Applikation einer Suspension von Candida albicans hervorgerufenen Sepsismodell untersucht. Die Sepsis verursachte innerhalb von 2-3 Tagen 100 %ige Mortalität. Den Versuchstieren wurde per os gemäß Beispiel 3 hergestellte, 8 % Nystatin enthaltende Komplex verabreicht. In einem Parallelversuch wurde Nystatin intravenös appliziert. Für beide Gruppen wurde die auf die unbehandelte Kontrolle bezogene Verlängerung der Überlebensdauer ermittelt. [formula] Wenn man diejenigen in Form des Komplexes per os verabreichten Nystatindosen mit denjenigen i.v. applizierten Nystatindosen vergleicht, die eine etwa gleiche Verlängerung der Überlebensdauer bewirkten (Tabelle 9, letzte Spalte),so läßt sich errechnen, daß aus dem Komplex durchschnittlich 6,2 % des Wirkstoffes in die Blutbahn gelangten. Bei den höchsten Dosen (i.v. 1,56 mg/kg, p.o. 25 mg/kg) ist das Zurückfallen der Überlebensdauer bereits auf die schwache Toxizität des Nystatins zurückzuführen. • b) Die Resorption von Nystatin aus subcutan appliziertem Nystatin-γ-CD-Komplex Weibliche CFY-Ratten eines durchschnittlichen Gewichtes von 180 g wurden mit Nystatin, mit Nystatin-γ-CD-Komplex (Wirkstoffgehalt9 8 %) beziehungsweise mit γ-CD behandelt. […]

A short description of data set [4]: Heat and storage stability of the solid substances (spectrophotometric content). The class given is physicochemical. The conditions noted are these: 60 °C, 24 Stunden, not protected from light or air. How it is done: Zur Untersuchung der Wärmestabilität des Flavofungin-γ-CD-Komplexes wurden die Substanzen in 1 mm Schichtdicke auf Uhrgläsern ausgebreitet und weder vor Licht noch vor Luft geschützt bei Raumtemperatur beziehungsweise bei 60 °C im Trockenschrank gelagert. Die zu unterschiedlichen Zeitpunkten genommenen Proben wurden spektrophotometrisch analysiert.
Der Wirkstoffgehalt des Flavofungin-γ-CD-Komplexes blieb jedoch auch nach 50 Tagen zu etwa 75 % erhalten. Ein 10 % Flavofungin enthaltendes, mit Glucose bereitetes physikalisches Gemisch verlor bei 14tägiger Lagerung bei Raumtemperatur 50 % seines Wirkstoffgehaltes. Der Wirkstoffgehalt des Komplexes war jedoch auch nach 50 Tagen noch zu mehr als 95 % erhalten. Die in einem verschlossenen Gefäß bei +4 °C 7 Monate lang gelagerte Probe zeigte keinen Verlust an Wirkstoff. Die Meßergebnisse sind in der Tabelle 4 zusammengestellt.
(§1) Auch mit diesem Produkt wird die im Beispiel 1 beschriebene Untersuchung der Wärmestabilität vorgenommen. Dabei wurde gefunden, daß der Komplex, ähnlich wie der lyophilisierte Komplex, eine erhöhte Wärmestabilität zeigt und seine antifungale Wirkung nicht geringer wird.

The nature of data set [5]: Solubility of Flavofungin in aqueous γ-CD solutions (spectrophotometric). The conditions noted are these: 4 % γ-CD versus water. The class given is physicochemical. As for the experimental part: Der erste Beweis für die Wechselwirkung zwischen Flavofungin und γ-Cyclodextrin ist der beträchtliche Anstieg der Löslichkeit des Flavofungins in wäßrigen γ-Cyclodextrinlösungen. Zur Untersuchung der Löslichkeit wurden wäßrige γ-CD-Lösungen unterschiedlicher Konzentration hergestellt: die Lösungen enthielten 0, 1, 2, 3, 4, 5, 7,5 beziehungsweise 10 % γ-CD. Zu je 1 ml der Lösungen wurden 5 mg festes Flavofungin gegeben. Die Lösungen wurden bei 25 °C 3 Stunden lang intensiv geschüttelt.
Die Lösungen wurden klarfiltriert, dann wurde spektrophotometrisch die Menge des in Lösung gegangenen Flavofungins ermittelt. Die Messungen zeigten, daß sich das Flavofungin am besten in 4 % γ-CD enthaltenden wäßrigen Lösungen löst; unter den Bedingungen der Untersuchung können Konzentrationen von etwa 4 mg/ml erzielt werden. […] Eine weitere Erhöhung der γ-CD-Konzentration steigert die Löslichkeit des Flavofungins nicht weiter. Die Ergebnisse der Löslichkeitsuntersuchungen sind in der Tabelle 1 zusammengefaßt.
Die aus dem anfänglich linearen Abschnitt der bei 25 °C aufgenommenen Löslichkeitsisotherme berechnete scheinbare Stabilitätskonstante des Komplexes beträgt etwa 3230.
Die maximale Löslichkeit in 4 %iger γ-CD-Lösung wurde auch bei verschiedenen Temperaturen untersucht. Die Flavofunginkonzentration betrug bei 10 °C 3,3 mg/ml, bei 30 °C 4,1 mg/ml und bei 40 °C 3,8 mg/ml.

The conditions of data set [6]: Raumtemperatur an der Luft, innerhalb von zwei Wochen; cited from earlier work.
For data set [7], the system named is S. oerevisiae, C. albicans, C. crusei und C. pseudotropicals. The experiment in a line: Microbiological potency after storage (MIC). The class given is cell-based. The conditions noted are these: sample stored under nitrogen in the freezer. How it is done:
Auch die mikrobiologische Wertmessung bestätigte, daß das Flavofungin in Form des γ-CD-Komplexes viel stabiler ist. Flavofungin-γ-CD-Komplex wurde bei Raumtemperatur und bei 60°C gelagert, und danach war die antifungale Wirkung genau so groß wie ursprünglich.
as §1

The test system of another data set is Mäusen. The conditions noted are these: i.p. an Mäusen; cited from earlier work.

For `C[C@@H]1[C@H](O)[C@@H](C)/C=C/C=C/C=C/C=C/C=C/C=C/C=C/[C@H](O[C@@H]2O[C@H](C)[C@@H](O)[C@H](N)[C@@H]2O)C[C@@H]2O[C@](O)(C[C@@H](O)C[C@@H](O)[C@H](O)CC[C@@H](O)C[C@@H](O)CC(=O)O[C@H]1C)C[C@H](O)[C@H]2C(=O)O` [Amphotericin B], the “EH₅₀ (concentration for 50 % haemolysis)” value in [1] was 5 µg/mL; in data set [3], 4,8 µg/ml. In addition, the “Löslichkeit relative to Löslichkeit in Wasser” value in [2] (5 %ige γ-CD-Lösung) is “etwa das Hundertfache”; in data set [2] (10 %ige γ-CD-Lösung), “etwa das Zweihundertfache”. For the same molecule, in data set [2] (Zusatz von 0,9 Gew.-% Kochsalz), the “Löslichkeit in γ-CD-haltigen Lösungen on addition of salt” value is “nicht verändert”. Besides, the “Amphotericin B Konzentration” value in [2] (γ-CD-Konzentration 0 %) is recorded as 0,003 mg/ml; in data set [2] (γ-CD-Konzentration 2 %), 0,12 mg/ml; in data set [2] (γ-CD-Konzentration 4 %), 0,25 mg/ml; in [2] (γ-CD-Konzentration 5 %), 0,30 mg/ml; in data set [2] (γ-CD-Konzentration 6 %), 0,36 mg/ml; in data set [2] (γ-CD-Konzentration 8 %) it was 0,51 mg/ml. The “Amphotericin B Konzentration” value in data set [2] (γ-CD-Konzentration 10 %) and in data set [2] (γ-CD-Konzentration 12 %) was 0,65 mg/ml throughout. In [3] (25 µg/ml), the Hämolyse was 92,4%.

In the case of `OC[C@H]1O[C@@H]2O[C@H]3[C@H](O)[C@@H](O)[C@@H](O[C@H]4[C@H](O)[C@@H](O)[C@@H](O[C@H]5[C@H](O)[C@@H](O)[C@@H](O[C@H]6[C@H](O)[C@@H](O)[C@@H](O[C@H]7[C@H](O)[C@@H](O)[C@@H](O[C@H]8[C@H](O)[C@@H](O)[C@@H](O[C@H]9[C@H](O)[C@@H](O)[C@@H](O[C@H]1[C@H](O)[C@H]2O)O[C@@H]9CO)O[C@@H]8CO)O[C@@H]7CO)O[C@@H]6CO)O[C@@H]5CO)O[C@@H]4CO)O[C@@H]3CO` [γ-CD, γ-Cyclodextrin], the “Mortalität (animals that died)” value in the data set with Weibliche CFY-Ratten is “kein einziges”.

Consider Flavofungin, for which the “Zersetzung of the solid” value in data set [4] is listed as “starke Zersetzung”. The “Anstieg der Löslichkeit” value in [5] is listed as “etwa das Achtzigfache”. In addition, the “Verlust der Aktivität” value in [6] was 50%. The same molecule yielded a minimum inhibitory concentration (MIC) in data set [7] of 25 µg/mL.

As for Methylester von Amphotericin B, the LD₅₀ with Mäusen was 1320 mg/kg.
